Measured values: PubChem BioAssay (NCI)
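Dose response: 5 concentrations. Exposure: 48 h. Format: 96-well plates. Endpoint: linear interpolation; highest concentration if not reached. TGI marks complete inhibition of growth.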

Experiments:
Experiment in all cases: NCI tumour cell line growth inhibition, 48 h
DLD-1 colon = test system: DLD-1 colon
DMS 273 small cell lung = test system: DMS 273 small cell lung
SNB-78 CNS = test system: SNB-78 CNS
XF 498 CNS = test system: XF 498 CNS
P388 leukemia = test system: P388 leukemia
P388/ADR leukemia = test system: P388/ADR leukemia
SN12K1 renal = test system: SN12K1 renal
RXF-631 renal = test system: RXF-631 renal

Row | SMILES | TGI (DLD-1 colon) | TGI (DMS 273 small cell lung) | TGI (SNB-78 CNS) | TGI (XF 498 CNS) | TGI (P388 leukemia) | TGI (P388/ADR leukemia) | TGI (SN12K1 renal) | TGI (RXF-631 renal)
1 | CCc1c2cc(OC)c(OC)cc2cc2c3cc(OC)c(OC)cc3cc[n+]12 (tested in a mixture with another compound) | > 100 µM | > 100 µM | > 100 µM | 33.6 µM |  |  |  | 
2 | COc1ccc(NC(=S)NNC(=O)c2nsc3ccccc23)cc1 |  | 81.5 µM | > 100 µM |  |  |  |  | 
3 | O=NN1C(c2ccccc2)C2CCCC(C2=O)C1c1ccccc1 (configuration not stated) | > 100 µM | 55.2 µM | > 100 µM | 33.3 µM | > 64.1 µM | 45.9 µM | > 71.3 µM | 
4 | NC1C=NNC1=O (configuration not stated) | > 100 µM | > 100 µM | > 100 µM | > 100 µM |  |  |  | 
5 | CCC1C(C#N)=C(O)NC(O)=C1C#N | > 100 µM | > 100 µM | > 100 µM | > 100 µM |  |  |  | > 100 µM
